In patent publication US11773140B2, “Gram-negative lysin-antimicrobial peptide (AMP) polypeptide constructs, lysins, isolated polynucleotides encoding same and uses thereof in human serum” (priority 2018, dated 2023):
Read-outs that look alike come from different tables or passages of the source.

Columns and labels:
Assay type in all cases: cell-based, Pseudomonas aeruginosa
[1] = system: carbapenem-resistant P. aeruginosa isolate PA22
Description: (§1) Such resensitization may be determined by combining the present lysins or lysin-AMP polypeptide constructs with an antibiotic in a checkerboard assay as described herein. Antibiotic-resistant bacteria, such as carbapenem-resistant P. aeruginosa, are added to the lysin or lysin-AMP polypeptide construct combination. […] See Clinical and Laboratory Standards Institute (CLSI), CLSI. […] M100 Performance Standards for Antimicrobial Susceptibility Testing; 29th Edition. Clinical and Laboratory Standards Institute, Wayne, Pa.
(§2) Up to seven carbapenem-resistant isolates were assessed. […] See Clinical and Laboratory Standards Institute (CLSI), CLSI. […] M100 Performance Standards for Antimicrobial Susceptibility Testing; 29th Edition. Clinical and Laboratory Standards Institute, Wayne, Pa.

[2] = system: carbapenem-resistant P. aeruginosa isolate PA24
Description: as §1, §2

[3] = system: carbapenem-resistant P. aeruginosa isolate PA21
Description: as §1, §2

[4] = system: carbapenem-resistant P. aeruginosa isolate PA23
Description: as §1, §2

[5] = system: carbapenem-resistant isolate WC-452
Description: as §1, §2

[6] = system: carbapenem-resistant P. aeruginosa isolate PA20
Description: as §1, §2

[7] = system: carbapenem-resistant P. aeruginosa isolate PA19
Description: as §1, §2

SMILES | carbapenem susceptibility category, Alone [1] | carbapenem MIC, Combination ([1]; in combination with GN121) | carbapenem MIC, Combination ([1]; in combination with GN123) | carbapenem susceptibility category, Combination ([1]; in combination with GN123) | carbapenem susceptibility category, Alone [2] | carbapenem MIC, Combination ([2]; in combination with GN121) | carbapenem MIC, Combination ([2]; in combination with GN123) | carbapenem susceptibility category, Combination ([2]; in combination with GN123) | carbapenem susceptibility category, Alone [3] | carbapenem MIC, Combination ([3]; in combination with GN121) | carbapenem MIC, Combination ([3]; in combination with GN123) | carbapenem susceptibility category, Combination ([3]; in combination with GN123) | carbapenem susceptibility category, Alone [4] | carbapenem MIC, Combination ([4]; in combination with GN123) | carbapenem susceptibility category, Combination ([4]; in combination with GN123) | carbapenem susceptibility category, Alone [5] | carbapenem MIC, Combination ([5]; in combination with GN123) | carbapenem susceptibility category, Combination ([5]; in combination with GN123) | carbapenem susceptibility category, Alone [6] | carbapenem MIC, Combination ([6]; in combination with GN121) | also measured
C[C@@H](O)[C@H]1C(=O)N2C(C(=O)O)=C(S[C@@H]3CN[C@H](C(=O)N(C)C)C3)[C@H](C)[C@H]12 [MEROPENEM, meropenem] | R ((R) = resistant) | 1 µg/mL | 1 µg/mL | S ((S) = sensitive) | R ((R) = resistant) | 1 µg/mL | 2 µg/mL | S ((S) = sensitive) | R ((R) = resistant) | 2 µg/mL | 1 µg/mL | S ((S) = sensitive) | R ((R) = resistant) | 0.5 µg/mL | S ((S) = sensitive) | R ((R) = resistant) | 1 µg/mL | S ((S) = sensitive) | R ((R) = resistant) | 1 µg/mL | carbapenem MIC, Combination ([4]; in combination with GN121): 2 µg/mL; carbapenem MIC, Combination ([5]; in combination with GN121): 1 µg/mL; carbapenem MIC, Combination ([6]; in combination with GN123): 0.5 µg/mL; carbapenem susceptibility category, Combination ([6]; in combination with GN123): S ((S) = sensitive); carbapenem susceptibility category, Alone [7]: R ((R) = resistant); carbapenem MIC, Combination ([7]; in combination with GN121): 1 µg/mL; carbapenem MIC, Combination ([7]; in combination with GN123): 0.5 µg/mL; carbapenem susceptibility category, Combination ([7]; in combination with GN123): S ((S) = sensitive)
C[C@@H](O)[C@H]1C(=O)N2C(C(=O)O)=C(SCCN=CN)C[C@H]12 [imipenem] | R ((R) = resistant) | 2 µg/mL | 2 µg/mL | S ((S) = sensitive) | R ((R) = resistant) | 1 µg/mL | 2 µg/mL | S ((S) = sensitive) | R ((R) = resistant) | 1 µg/mL | 0.5 µg/mL | S ((S) = sensitive) | R ((R) = resistant) | 0.25 µg/mL | S ((S) = sensitive) | R ((R) = resistant) | 1 µg/mL | S ((S) = sensitive) | R ((R) = resistant) | 0.5 µg/mL | carbapenem susceptibility category, Combination ([1]; in combination with GN121): S ((S) = sensitive); carbapenem susceptibility category, Combination ([2]; in combination with GN121): S ((S) = sensitive); carbapenem susceptibility category, Combination ([3]; in combination with GN121): S ((S) = sensitive); MIC, Alone ([4]; agent alone (carbapenem or lysin)): 16 µg/mL; carbapenem susceptibility category, Combination ([4]; in combination with GN121): S ((S) = sensitive); carbapenem susceptibility category, Combination ([6]; in combination with GN121): S ((S) = sensitive); carbapenem MIC, Combination ([6]; in combination with GN123): 1 µg/mL; carbapenem susceptibility category, Combination ([6]; in combination with GN123): S ((S) = sensitive); carbapenem susceptibility category, Alone [7]: R ((R) = resistant); carbapenem MIC, Combination ([7]; in combination with GN121): 1 µg/mL; carbapenem susceptibility category, Combination ([7]; in combination with GN121): S ((S) = sensitive); carbapenem MIC, Combination ([7]; in combination with GN123): 0.5 µg/mL; carbapenem susceptibility category, Combination ([7]; in combination with GN123): S ((S) = sensitive)
